In PubChem BioAssay AID1418 (Emory University Molecular Libraries Screening Center, 2008):
pIC50: −log10 of the molar value. Calls of active or inactive are those of the source. How the calls were made is not given here.

target: Induced myeloid leukemia cell differentiation protein Mcl-1 (Homo sapiens) (UniProt Q07820); test: blockers of Bid binding to Mcl-1 – biochemical, TR-FRET, dose response (AID 1418); details: Mcl-1/Bid peptide binding, TR-FRET (europium/Dy647), 2 hr
Sequence (Q07820 whole entry, looked up): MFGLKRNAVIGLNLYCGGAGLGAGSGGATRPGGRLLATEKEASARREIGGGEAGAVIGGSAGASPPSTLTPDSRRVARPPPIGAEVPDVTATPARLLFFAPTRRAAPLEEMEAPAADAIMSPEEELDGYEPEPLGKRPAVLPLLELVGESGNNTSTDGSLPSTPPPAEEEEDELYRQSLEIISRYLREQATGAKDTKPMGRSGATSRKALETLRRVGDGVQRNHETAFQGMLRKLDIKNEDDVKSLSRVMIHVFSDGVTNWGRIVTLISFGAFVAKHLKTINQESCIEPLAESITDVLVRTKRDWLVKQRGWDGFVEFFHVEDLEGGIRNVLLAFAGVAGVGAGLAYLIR

Row | Compound | pIC50 | IC50
1 | CN1C(=S)N(c2cccnc2)C(=O)/C1=C\c1ccc(N(C)C)cc1 | 5.05 | 
2 | CC1(C)CC(=O)C2=C(C1)OC(N)=C(C#N)C2c1cccc(OC(=O)c2ccco2)c1 (centres undefined) |  | > 54 µM (inactive)
3 | O=C(NC1CCCCC1)C(c1ccc2ncccc2c1)N(Cc1ccccc1)C(=O)c1ccc2c(c1)OCCO2 (centres undefined) |  | > 54 µM (inactive)
4 | COc1ccc2[nH]c3c(c2c1)CCn1c-3nc2sc(C(=O)Nc3ccccc3)c(C)c2c1=O | 5.72 | 
5 | Cc1nc2sc(C(c3cccs3)N3CCOCC3)c(O)n2n1 (centres undefined) |  | > 54 µM (inactive)
6 | CNC(=S)Nc1cc(C)ccc1OC(F)F |  | > 54 µM (inactive)
7 | CCSC1=NC2(CCCCC2)Nc2sc3c(c21)CCCC3 | 6.36 | 
8 | CC1CCN(S(=O)(=O)c2cccc(C(=O)Nc3ccccn3)c2)CC1 |  | > 54 µM (inactive)
9 | O=c1oc2c(O)c(O)cc3c(=O)oc4c(O)c(O)cc1c4c23 | 6.24 | 
10 | Nc1nc(SCc2ccc([N+](=O)[O-])cc2)nc2nc3c(cc12)CCCC3 |  | > 54 µM (inactive)
11 | CCOc1cc(N2CCOCC2)c(OCC)cc1NC(=O)CCS(=O)(=O)c1ccc(Cl)cc1 |  | > 54 µM (inactive)
12 | CCOC(=O)c1c(C)oc2cc(Br)c(OC(=O)N3CCOCC3)cc12 |  | > 54 µM (inactive)
13 | O=C(CN1CCN(CCN2C(=O)c3cccc4cccc(c34)C2=O)CC1)c1ccc(F)cc1 |  | > 54 µM (inactive)
14 | COc1ccc(OC)c(NC(=S)N(CCc2c(C)[nH]c3ccc(C)cc23)Cc2cccs2)c1 |  | > 54 µM (inactive)
15 | C#CCOCCOCCOCCNc1nc(N2CCN(C(=O)[C@H](CCC(=O)O)n3cc(C(N)CC(C)C)nn3)CC2)nc(N2CCN(C(=O)[C@H](CCC(=O)O)n3cc(C(N)[C@H](C)CC)nn3)CC2)n1 (some centres undefined) | 6.00 | 
16 | O=C(CSc1nnc(-c2ccncc2)o1)NCc1ccccc1Cl |  | > 54 µM (inactive)
17 | Cc1ccnc(N/C=C(\C#N)c2nc(-c3cccc(Br)c3)cs2)c1 | 6.10 | 
18 | COc1ccc(-c2csc(/C(C#N)=C\c3ccc(O)c([N+](=O)[O-])c3)n2)cc1OC |  | > 54 µM (inactive)
19 | Oc1c(Cl)cc(Cl)cc1Sc1cc(Cl)cc(Cl)c1O | 5.78 | 
20 | COc1cccc(CNc2nc3ccc(C)cc3n3cnnc23)c1 |  | > 54 µM (inactive)
21 | CCC(C)[C@H](NC(=O)Nc1ccccc1F)C(=O)O (some centres undefined) |  | > 54 µM (inactive)
22 | CC1CN(C(=O)c2cccc(C(=O)N3CC(C)OC(C)C3)c2)CC(C)O1 (centres undefined) |  | > 54 µM (inactive)
23 | Cc1ccc(-c2nn(C)c(=O)c3ccccc23)cc1CNC(=O)Cn1nc(-c2ccccc2)c2ccccc2c1=O | 6.25 | 
24 | O=C(Nc1ccc(CCC(=O)N2CCCC2)cc1)c1ncn[nH]1 |  | > 54 µM (inactive)
25 | COc1cc(C(=O)N/N=C\c2ccccc2)c([N+](=O)[O-])c(OC)c1OC |  | > 54 µM (inactive)

Row | Compound | pIC50 | IC50
26 | Cc1sc(NC(=O)c2sc3nc4c(C)cccc4cc3c2N)c(C#N)c1C | 6.02 | 
27 | O=C(/C=C/c1cccs1)Nc1scc(-c2ccccc2)c1C(=O)O | 6.27 | 
28 | COc1cccc(-n2c(SCc3ccccn3)nc3c(c2=O)SCC3)c1 |  | > 54 µM (inactive)
29 | C=CCn1c(O)c(C(C)=NCC2CCCO2)c(=O)[nH]c1=O (centres undefined) | 6.32 | 
30 | Cc1cc(=O)oc2cc(OCc3ccc(C(=O)OCC(=O)Nc4ccc(N(C)C)cc4)cc3)ccc12 | 6.15 | 
31 | N=c1cc(C2(O)CCCCC2)n2c(nc3ccccc32)s1 |  | > 54 µM (inactive)
32 | COc1ccc(NC(=O)CN2C(=O)/C(=C3\SC(=S)N(C4CCS(=O)(=O)C4)C3=O)c3ccccc32)cc1 (centres undefined) | 6.14 | 
33 | O=C(Nc1ccc2sccc2c1)c1ccc(Cl)s1 |  | > 54 µM (inactive)
34 | Cn1c(CSc2nc3ccccc3s2)nnc1SCC(=O)NCc1cccnc1 |  | > 54 µM (inactive)
35 | O=C1c2cccc3cc([N+](=O)[O-])cc(c23)C(=O)N1/N=C/c1ccc(O)cc1O | 6.09 | 
36 | COc1ccc2nc(C)cc(SCC(=O)Nc3c(C)cccc3C)c2c1 | 4.98 | 
37 | O=C1OC(c2cccs2)=N/C1=C/c1ccc(-c2cccc(C(=O)O)c2)o1 | 5.57 | 
38 | CCOC(=O)c1cc(-c2ccccc2)n(CC(=O)N2CCCC2)c1C |  | > 54 µM (inactive)
39 | N#Cc1cccc(NC(=O)CSc2ccc3c4c(cccc24)C(=O)c2ccccc2-3)c1 | 5.58 | 
40 | COC(CNC(=O)c1ccc2nc(-c3cccs3)c(-c3cccs3)nc2c1)OC |  | > 54 µM (inactive)
41 | Cc1c(N=Nc2c(-c3ccc([N+](=O)[O-])cc3)[nH]n(C(N)=S)c2=O)cccc1[N+](=O)[O-] | 5.53 | 
42 | C[C@@H](C(=O)Nc1nc2ccc(F)cc2s1)N1C(=O)C2CC=CCC2C1=O (some centres undefined) |  | > 54 µM (inactive)
43 | Cc1ccc(-c2nc(CS(=O)CC(=O)N3CCC4(CC3)OCCO4)c(C)o2)cc1 (centres undefined) |  | > 54 µM (inactive)
44 | O=C(Nc1ccc(F)cc1)Nc1ccc(Oc2ncnc3cc(Cl)ccc23)nc1 |  | > 54 µM (inactive)
45 | COc1ccc(C(=O)Nc2cccc(C)c2)cc1S(=O)(=O)N1CCOCC1 |  | > 54 µM (inactive)
46 | COc1ccc(-c2ccc(C#N)c(SCC(=O)Nc3sc4c(c3C#N)CCC4)n2)cc1OC | 6.17 | 
47 | O=C(NCCc1csc(-c2cccnc2)n1)c1cccs1 |  | > 54 µM (inactive)
48 | Cc1cccc(CN2CCc3c(OCC(=O)NCc4ccco4)cccc3C2=O)c1 |  | > 54 µM (inactive)
49 | COc1ccccc1NC(=O)CSc1nc2ccccc2cc1Cc1ccccc1 |  | > 54 µM (inactive)
50 | CC1C(c2ccccc2)N(C)CCC12NC(=O)NC2=O (centres undefined) |  | > 54 µM (inactive)

Row | Compound | pIC50 | IC50
51 | O=C1CSC(=S)N1/N=C/c1ccc(O)c(O)c1O | 5.93 | 
52 | O=C(Nn1cnnc1)c1ccccc1CCc1ccccc1 |  | > 54 µM (inactive)
53 | CC(C)[C@H](NC(=O)NCCC1=CCCCC1)C(=O)O |  | > 54 µM (inactive)
54 | c1ccc2c(c1)nnn2-c1ncnc2sc3c(c12)CCCC3 |  | > 54 µM (inactive)
55 | COc1cc(NS(=O)(=O)c2ccc(NC(=S)NC(=O)c3sc4ccccc4c3Cl)cc2)nc(OC)n1 |  | > 54 µM (inactive)
56 | CN(C)c1ccc(-c2nn3c(-c4ccc(Cl)cc4Cl)nnc3s2)cc1 | 6.11 | 
57 | CCOc1ccc(N/C(=C(/C(Cl)=C(Cl)Cl)[N+](=O)[O-])n2cncn2)cc1 |  | > 54 µM (inactive)
58 | Cc1ccc(C(=O)CN(C(=O)c2ccc(Cl)c(Cl)c2)N2C(=O)C3C4C=CC(C4)C3C2=O)cc1 (centres undefined) |  | > 54 µM (inactive)
59 | COc1ccccc1NC(=O)c1sc2ncn(Cc3ccc(C)cc3)c(=O)c2c1C | 5.11 | 
60 | Cc1cc(=O)[nH]c(SCC(=O)c2ccc3c(c2)NC(=O)CO3)n1 |  | > 54 µM (inactive)
61 | COc1ccc(N/C(=C(/C(Cl)=C(Cl)Cl)[N+](=O)[O-])n2nnc3ccccc32)cc1OC |  | > 54 µM (inactive)
62 | O=C(Cn1[nH]c(=O)c2ccccc2c1=O)OCC(=O)N1CCc2ccccc2C1 |  | > 54 µM (inactive)
63 | O=C(O)c1cccc(N/N=C/C2=C(Cl)c3cc(Cl)ccc3SC2)c1 | 5.07 | 
64 | N#Cc1ccc(CO/N=C/c2ccccc2)cc1 |  | > 54 µM (inactive)
65 | CCN1CCc2c(OCc3ccc(C(=O)OC)o3)cccc2C1=O |  | > 54 µM (inactive)
66 | COc1ccccc1CN1CCN(C(=O)Cc2ccccc2)CC1 |  | > 54 µM (inactive)
67 | CN(C)CCCCOc1ccccc1-c1ccccc1 |  | > 54 µM (inactive)
68 | CC(NC(=O)Cn1cnc2c1c(=O)n(C)c(=O)n2C)c1ccccc1 (centres undefined) |  | > 54 µM (inactive)
69 | O=C(c1ccccc1)N1CCN(Cc2ccccc2Br)CC1 |  | > 54 µM (inactive)
70 | COc1ccccc1N1CCN(CC(=O)c2c(C)[nH]c3ccccc23)CC1 |  | > 54 µM (inactive)
71 | COCCN1C(=O)C(=O)/C(=C(/O)c2ccc(S(=O)(=O)N3CCOCC3)cc2)C1c1cccc(Cl)c1 (centres undefined) |  | > 54 µM (inactive)
72 | COC(=O)C(CC(C)C)NC(=O)c1ccc(F)cc1 (centres undefined) |  | > 54 µM (inactive)
73 | O=C(NCC1CCCO1)c1cc([N+](=O)[O-])ccc1Cl (centres undefined) |  | > 54 µM (inactive)
74 | O=C(NNC(=O)c1ccccc1Cl)c1ccccc1Cl |  | > 54 µM (inactive)
75 | O=C(N=Nc1c(O)[nH]c2ccc(Br)cc12)c1cc(-c2cccs2)nc2ccccc12 | 6.27 | 

Row | Compound | pIC50 | IC50
76 | CCc1cc(C(c2ccc(F)cc2)N2CCOCC2)c(NC(=O)c2ccccc2)s1 (centres undefined) |  | > 54 µM (inactive)
77 | Cc1nc(SCC(=O)Nc2cc(Cl)ccc2[N+](=O)[O-])nc(C)c1C |  | > 54 µM (inactive)
78 | O=S(=O)(NCc1ccccc1)c1cccc(S(=O)(=O)N2CCOCC2)c1 |  | > 54 µM (inactive)
79 | CCOc1ccc(N=C2NC(=O)S/C2=C\c2ccc(O)cc2)cc1 | 6.08 | 
80 | Cc1cc(=O)c2ccc(C(F)(F)F)cc2[nH]1 |  | > 54 µM (inactive)
81 | O=C(N/N=C/c1cccc([N+](=O)[O-])c1)c1cc2c(ccc3ccccc32)o1 | 5.79 | 
82 | CNC(=O)CC1C(=O)N(c2ccc(OC)cc2)C(=S)N1NC(=O)c1cccc(F)c1 (centres undefined) |  | > 54 µM (inactive)
83 | Cc1ccccc1C(=O)Nc1ccc2c(C#N)c3nc4ccccc4nc3n2c1 | 5.98 | 
84 | NC(=S)Nc1ccc(F)cc1F |  | > 54 µM (inactive)
85 | Cc1cccc(NC(=O)C2C(C(=O)O)C3C=CC2C32CC2)c1C (centres undefined) |  | > 54 µM (inactive)
86 | CCCCN(Cc1cc2ccccc2[nH]c1=O)S(C)(=O)=O |  | > 54 µM (inactive)
87 | CC(/C=N\Nc1nnc2c(n1)[nH]c1c(C)cccc12)=C\c1ccco1 | 5.78 | 
88 | NC(=S)n1[nH]c(-c2ccc([N+](=O)[O-])cc2)c(N=Nc2ccccc2[N+](=O)[O-])c1=O | 5.49 | 
89 | N#Cc1c2nc3ccccc3nc2n2cc(NC(=O)c3ccc(F)cc3)ccc12 | 6.15 | 
90 | COc1cc2nc(N3CCN(C(=O)c4ccco4)CC3)nc(N)c2cc1OC |  | > 54 µM (inactive)
91 | COc1cc(Cl)c(C)cc1NC(=O)CCCn1c(=O)oc2ccccc21 |  | > 54 µM (inactive)
92 | O=C(Nc1nnc(-c2ccco2)s1)C1CC1 |  | > 54 µM (inactive)
93 | O=C(c1cccc(Cl)c1)N1CCN(Cc2ccccc2F)CC1 |  | > 54 µM (inactive)
94 | Cc1ccc(NC(=O)CN2CCc3ccccc3C2)cc1F |  | > 54 µM (inactive)
95 | O=C(CSCc1ccccc1)NCCCN1CCOCC1 |  | > 54 µM (inactive)
96 | COC(=O)c1c(C)[nH]c(C(=O)C(C)[N+]23CCN(CC2)CC3)c1C (centres undefined) | 5.55 | 
97 | O=C(CN1C(=O)NC2(CCc3ccccc3C2)C1=O)Nc1ccc(F)cc1 (centres undefined) |  | > 54 µM (inactive)
98 | COc1ccc(CCNc2nc(-c3sc(C)nc3C)cs2)cc1OC |  | inactive
99 | CCOC(=O)c1ccccc1NC(=O)c1nc2nccc(C)n2n1 |  | > 54 µM (inactive)
